Normalised inhibition (eCFP-eYFP dual reporter) data for 14 substances are collected here from the OligoGym collection.

Oligonucleotides are given in HELM: sugar(base)linkage, 5' to 3'; d 2'-deoxyribose, r ribose, m 2'-O-methylribose, p phosphate. ss, as = sense and antisense strand
Also: test concentration or dose not given here.

For this data set, the target named is UBE2N. The experiment in a line: reporter assay of Huesken 2005. The note with it: siRNA. (Reporter assays use an easily measured gene product as a stand-in for the process of interest.)
For “RNA1{r(C)p.r(U)p.r(C)p.r(C)p.r(C)p.r(A)p.r(A)p.r(U)p.r(C)p.r(C)p.r(A)p.r(G)p.r(A)p.r(U)p.r(G)p.r(A)p.r(U)p.r(C)p.r(C)p.d(T)p.d(T)}|RNA2{r(G)p.r(G)p.r(A)p.r(U)p.r(C)p.r(A)p.r(U)p.r(C)p.r(U)p.r(G)p.r(G)p.r(A)p.r(U)p.r(U)p.r(G)p.r(G)p.r(G)p.r(A)p.r(G)p.d(C)p.d(A)}$$$RNA1{StrandType:ss}|RNA2{StrandType:as}$”, the normalised inhibition (eCFP-eYFP dual reporter) turned out to be 58.7%.

With “RNA1{r(A)p.r(G)p.r(A)p.r(U)p.r(A)p.r(U)p.r(U)p.r(U)p.r(U)p.r(G)p.r(A)p.r(A)p.r(A)p.r(G)p.r(A)p.r(U)p.r(A)p.r(A)p.r(G)p.d(T)p.d(T)}|RNA2{r(C)p.r(U)p.r(U)p.r(A)p.r(U)p.r(C)p.r(U)p.r(U)p.r(U)p.r(C)p.r(A)p.r(A)p.r(A)p.r(A)p.r(U)p.r(A)p.r(U)p.r(C)p.r(U)p.d(A)p.d(G)}$$$RNA1{StrandType:ss}|RNA2{StrandType:as}$”, the normalised inhibition (eCFP-eYFP dual reporter) amounted to 57.1%.

In the case of “RNA1{r(C)p.r(C)p.r(C)p.r(A)p.r(A)p.r(G)p.r(C)p.r(C)p.r(A)p.r(U)p.r(A)p.r(G)p.r(A)p.r(A)p.r(A)p.r(C)p.r(A)p.r(G)p.r(C)p.d(T)p.d(T)}|RNA2{r(G)p.r(C)p.r(U)p.r(G)p.r(U)p.r(U)p.r(U)p.r(C)p.r(U)p.r(A)p.r(U)p.r(G)p.r(G)p.r(C)p.r(U)p.r(U)p.r(G)p.r(G)p.r(G)p.d(C)p.d(T)}$$$RNA1{StrandType:ss}|RNA2{StrandType:as}$”, the normalised inhibition (eCFP-eYFP dual reporter) amounted to 60.2%.

“RNA1{r(U)p.r(A)p.r(G)p.r(A)p.r(U)p.r(A)p.r(U)p.r(U)p.r(U)p.r(U)p.r(G)p.r(A)p.r(A)p.r(A)p.r(G)p.r(A)p.r(U)p.r(A)p.r(A)p.d(T)p.d(T)}|RNA2{r(U)p.r(U)p.r(A)p.r(U)p.r(C)p.r(U)p.r(U)p.r(U)p.r(C)p.r(A)p.r(A)p.r(A)p.r(A)p.r(U)p.r(A)p.r(U)p.r(C)p.r(U)p.r(A)p.d(G)p.d(A)}$$$RNA1{StrandType:ss}|RNA2{StrandType:as}$” gave a normalised inhibition (eCFP-eYFP dual reporter) of 80.6%.

For “RNA1{r(C)p.r(U)p.r(U)p.r(G)p.r(A)p.r(A)p.r(C)p.r(U)p.r(A)p.r(U)p.r(U)p.r(C)p.r(C)p.r(U)p.r(U)p.r(C)p.r(C)p.r(A)p.r(G)p.d(T)p.d(T)}|RNA2{r(C)p.r(U)p.r(G)p.r(G)p.r(A)p.r(A)p.r(G)p.r(G)p.r(A)p.r(A)p.r(U)p.r(A)p.r(G)p.r(U)p.r(U)p.r(C)p.r(A)p.r(A)p.r(G)p.d(T)p.d(T)}$$$RNA1{StrandType:ss}|RNA2{StrandType:as}$”, the normalised inhibition (eCFP-eYFP dual reporter) came out at 84.8%.

Substance “RNA1{r(U)p.r(A)p.r(G)p.r(A)p.r(G)p.r(C)p.r(A)p.r(U)p.r(G)p.r(G)p.r(A)p.r(C)p.r(U)p.r(A)p.r(G)p.r(G)p.r(C)p.r(U)p.r(A)p.d(T)p.d(T)}|RNA2{r(U)p.r(A)p.r(G)p.r(C)p.r(C)p.r(U)p.r(A)p.r(G)p.r(U)p.r(C)p.r(C)p.r(A)p.r(U)p.r(G)p.r(C)p.r(U)p.r(C)p.r(U)p.r(A)p.d(G)p.d(C)}$$$RNA1{StrandType:ss}|RNA2{StrandType:as}$” registered a normalised inhibition (eCFP-eYFP dual reporter) of 73.8%.

Consider “RNA1{r(G)p.r(U)p.r(U)p.r(C)p.r(C)p.r(U)p.r(G)p.r(G)p.r(C)p.r(A)p.r(U)p.r(C)p.r(A)p.r(A)p.r(A)p.r(G)p.r(C)p.r(C)p.r(G)p.d(T)p.d(T)}|RNA2{r(C)p.r(G)p.r(G)p.r(C)p.r(U)p.r(U)p.r(U)p.r(G)p.r(A)p.r(U)p.r(G)p.r(C)p.r(C)p.r(A)p.r(G)p.r(G)p.r(A)p.r(A)p.r(C)p.d(T)p.d(G)}$$$RNA1{StrandType:ss}|RNA2{StrandType:as}$”, for which the normalised inhibition (eCFP-eYFP dual reporter) came to 78.2%.

Regarding “RNA1{r(C)p.r(C)p.r(U)p.r(A)p.r(A)p.r(U)p.r(G)p.r(U)p.r(A)p.r(G)p.r(A)p.r(C)p.r(A)p.r(A)p.r(G)p.r(U)p.r(U)p.r(G)p.r(G)p.d(T)p.d(T)}|RNA2{r(C)p.r(C)p.r(A)p.r(A)p.r(C)p.r(U)p.r(U)p.r(G)p.r(U)p.r(C)p.r(U)p.r(A)p.r(C)p.r(A)p.r(U)p.r(U)p.r(A)p.r(G)p.r(G)p.d(A)p.d(T)}$$$RNA1{StrandType:ss}|RNA2{StrandType:as}$”, the normalised inhibition (eCFP-eYFP dual reporter) was determined as 69.4%.

The substance “RNA1{r(G)p.r(U)p.r(G)p.r(G)p.r(U)p.r(C)p.r(A)p.r(U)p.r(U)p.r(G)p.r(C)p.r(U)p.r(G)p.r(G)p.r(C)p.r(C)p.r(C)p.r(U)p.r(C)p.d(T)p.d(T)}|RNA2{r(G)p.r(A)p.r(G)p.r(G)p.r(G)p.r(C)p.r(C)p.r(A)p.r(G)p.r(C)p.r(A)p.r(A)p.r(U)p.r(G)p.r(A)p.r(C)p.r(C)p.r(A)p.r(C)p.d(A)p.d(T)}$$$RNA1{StrandType:ss}|RNA2{StrandType:as}$” displayed a normalised inhibition (eCFP-eYFP dual reporter) of 54.1%.

The substance “RNA1{r(U)p.r(G)p.r(A)p.r(U)p.r(C)p.r(C)p.r(A)p.r(U)p.r(U)p.r(A)p.r(G)p.r(C)p.r(A)p.r(A)p.r(A)p.r(U)p.r(G)p.r(A)p.r(U)p.d(T)p.d(T)}|RNA2{r(A)p.r(U)p.r(C)p.r(A)p.r(U)p.r(U)p.r(U)p.r(G)p.r(C)p.r(U)p.r(A)p.r(A)p.r(U)p.r(G)p.r(G)p.r(A)p.r(U)p.r(C)p.r(A)p.d(T)p.d(C)}$$$RNA1{StrandType:ss}|RNA2{StrandType:as}$” gave a normalised inhibition (eCFP-eYFP dual reporter) of 70.2%.

As to “RNA1{r(U)p.r(U)p.r(U)p.r(C)p.r(A)p.r(U)p.r(G)p.r(U)p.r(G)p.r(G)p.r(U)p.r(C)p.r(A)p.r(U)p.r(U)p.r(G)p.r(C)p.r(U)p.r(G)p.d(T)p.d(T)}|RNA2{r(C)p.r(A)p.r(G)p.r(C)p.r(A)p.r(A)p.r(U)p.r(G)p.r(A)p.r(C)p.r(C)p.r(A)p.r(C)p.r(A)p.r(U)p.r(G)p.r(A)p.r(A)p.r(A)p.d(A)p.d(T)}$$$RNA1{StrandType:ss}|RNA2{StrandType:as}$”, the normalised inhibition (eCFP-eYFP dual reporter) came out at 39.8%.

In the case of “RNA1{r(U)p.r(G)p.r(A)p.r(A)p.r(A)p.r(G)p.r(A)p.r(U)p.r(A)p.r(A)p.r(G)p.r(U)p.r(G)p.r(G)p.r(U)p.r(C)p.r(C)p.r(C)p.r(C)p.d(T)p.d(T)}|RNA2{r(G)p.r(G)p.r(G)p.r(G)p.r(A)p.r(C)p.r(C)p.r(A)p.r(C)p.r(U)p.r(U)p.r(A)p.r(U)p.r(C)p.r(U)p.r(U)p.r(U)p.r(C)p.r(A)p.d(A)p.d(A)}$$$RNA1{StrandType:ss}|RNA2{StrandType:as}$”, the normalised inhibition (eCFP-eYFP dual reporter) is 34.5%.

Take “RNA1{r(U)p.r(U)p.r(U)p.r(A)p.r(A)p.r(A)p.r(C)p.r(U)p.r(U)p.r(G)p.r(A)p.r(A)p.r(C)p.r(U)p.r(A)p.r(U)p.r(U)p.r(C)p.r(C)p.d(T)p.d(T)}|RNA2{r(G)p.r(G)p.r(A)p.r(A)p.r(U)p.r(A)p.r(G)p.r(U)p.r(U)p.r(C)p.r(A)p.r(A)p.r(G)p.r(U)p.r(U)p.r(U)p.r(A)p.r(A)p.r(A)p.d(A)p.d(G)}$$$RNA1{StrandType:ss}|RNA2{StrandType:as}$”: the normalised inhibition (eCFP-eYFP dual reporter) amounted to 29.9%.

“RNA1{r(A)p.r(C)p.r(G)p.r(A)p.r(A)p.r(G)p.r(C)p.r(C)p.r(C)p.r(A)p.r(A)p.r(G)p.r(C)p.r(C)p.r(A)p.r(U)p.r(A)p.r(G)p.r(A)p.d(T)p.d(T)}|RNA2{r(U)p.r(C)p.r(U)p.r(A)p.r(U)p.r(G)p.r(G)p.r(C)p.r(U)p.r(U)p.r(G)p.r(G)p.r(G)p.r(C)p.r(U)p.r(U)p.r(C)p.r(G)p.r(U)p.d(T)p.d(G)}$$$RNA1{StrandType:ss}|RNA2{StrandType:as}$” returned a normalised inhibition (eCFP-eYFP dual reporter) of 77.5%.
